In paper PMC12627933, “A First-In-Human Study of the SUMOylation Inhibitor Subasumstat in Patients with Advanced/Metastatic Solid Tumors or Relapsed/Refractory Hematologic Malignancies” (Cancer Research Communications, 2025):

Assay: Safety: treatment-emergent adverse events (NCI CTCAE v5.0; CRS per ASTCT), phase I/II study NCT03648372
Type: in vivo
Procedure: This study comprised two parts: a phase I dose escalation and a phase II dose expansion (Fig. 1). In the dose-escalation phase, patients were enrolled to receive subasumstat intravenously as a 1-hour (±10 minutes) infusion on days 1, 4, 8, and 11 of a 21-day cycle (biweekly schedule). […] Dose escalation was based on cohort with an adaptive design using Bayesian logistic regression modeling with overdose control. The starting dose of subasumstat was based on Good Laboratory Practice animal toxicity studies and supported by the estimation of a minimum anticipated biologically effective level. A detailed description of dose-limiting toxicities (DLT) is presented in the Supplementary Methods.
The phase II dose-expansion portion enrolled patients to receive the recommended phase II dose (RP2D) determined in phase I, with each cohort assessed separately using an adaptive two-stage design for a single proportion (see Supplementary Methods). For stage 1, each cohort was analyzed when a prespecified number of patients were enrolled and had the potential to have at least one posttreatment scan [i.e., after the first disease assessment, 2 months from cycle 1 day 1 (C1D1)]. If the prespecified minimal response rate was not achieved in the first stage for a given cohort, that cohort would be closed to enrollment. […] The final analysis of the primary endpoints for each cohort would take place when all ongoing patients had the opportunity to complete the 6-month disease assessment. Across both phases, patients received subasumstat for up to 1 year or until confirmed disease progression, unacceptable toxicity, if any withdrawal criterion from the study was met, or if discontinuation of subasumstat occurred.
The occurrence of DLTs was assessed during cycle 1 (DLTs are described in the Supplementary Methods). Treatment-emergent adverse events (TEAE) were graded according to NCI Common Terminology Criteria for Adverse Events version 5.0, except for cytokine release syndrome (CRS), which was graded according to the American Society for Transplantation and Cellular Therapy Consensus Grading for CRS ([20]).
It was anticipated that approximately 70 DLT-evaluable patients would be enrolled for dose escalation. The safety analysis set included all patients who received at least one dose, even if incomplete, of subasumstat. […] The overall response rate (ORR) was defined as the proportion of patients who achieved complete response and partial response (PR) during the study. The disease control rate (DCR) was defined as the proportion of patients who achieved […] as per RECIST v1.1 for solid tumors or Lugano classification for lymphomas. […] Progression-free survival was summarized descriptively using the Kaplan–Meier method.

Compound: Cc1sc(C(=O)c2cncnc2N[C@@H]2C[C@H](COS(N)(=O)=O)[C@@H](O)C2)cc1[C@@H]1NCCc2ccc(Cl)cc21 [subasumstat]
- Subasumstat-related TEAE: Nausea (Phase II (n = 25)): 4 (16.0) n (%)
- Subasumstat-related TEAE: Pyrexia (Phase II (n = 25)): 9 (36.0) n (%)
- Subasumstat-related TEAE: Vomiting (Phase II (n = 25)): 1 (4.0) n (%)
- TEAE: Abdominal distension (Phase II (n = 25)): 1 (4.0) n (%)
- TEAE: Abdominal pain (Phase II (n = 25)): 4 (16.0) n (%)
- TEAE: Anemia (Phase II (n = 25)): 7 (28.0) n (%)
- TEAE: Arthralgia (Phase II (n = 25)): 5 (20.0) n (%)
- TEAE: Back pain (Phase II (n = 25)): 2 (8.0) n (%)
- TEAE: CRS (Phase II (n = 25)): 3 (12.0) n (%)
- TEAE: Chills (Phase II (n = 25)): 8 (32.0) n (%)
- TEAE: Constipation (Phase II (n = 25)): 2 (8.0) n (%)
- TEAE: Decreased appetite (Phase II (n = 25)): 5 (20.0) n (%)
- TEAE: Dehydration (Phase II (n = 25)): 2 (8.0) n (%)
- TEAE: Diarrhea (Phase II (n = 25)): 10 (40.0) n (%)
- TEAE: Dyspnea (Phase II (n = 25)): 4 (16.0) n (%)
- TEAE: Fatigue (Phase II (n = 25)): 9 (36.0) n (%)
- TEAE: Headache (Phase II (n = 25)): 7 (28.0) n (%)
- TEAE: Hypophosphatemia (Phase II (n = 25)): 0 n (%)
- TEAE: Insomnia (Phase II (n = 25)): 2 (8.0) n (%)
- TEAE: Nausea (Phase II (n = 25)): 4 (16.0) n (%)
- TEAE: Peripheral edema (Phase II (n = 25)): 2 (8.0) n (%)
- TEAE: Pleural effusion (Phase II (n = 25)): 3 (12.0) n (%)
- TEAE: Pyrexia (Phase II (n = 25)): 11 (44.0) n (%)
- TEAE: Stomatitis (Phase II (n = 25)): 3 (12.0) n (%)
- TEAE: Vomiting (Phase II (n = 25)): 2 (8.0) n (%)
- TEAEs (Phase II (n = 25)): 24 (96.0) n (%)
- TEAEs leading to discontinuation (Phase II (n = 25)): 4 (16.0) n (%)
- TEAEs leading to discontinuation related to subasumstat (Phase II (n = 25)): 1 (4.0) n (%)
- TEAEs related to subasumstat (Phase II (n = 25)): 22 (88.0) n (%)
- AESI (adverse event of special interest) (Total (N = 109)): 12 (11.0) n (%)
- AESI related to subasumstat (Total (N = 109)): 12 (11.0) n (%)
- AESI: CRS (Total (N = 109)): 12 (11.0) n (%)
- Grade ≥3 TEAE: Abdominal pain (Total (N = 109)): 6 (5.5) n (%)
- Grade ≥3 TEAE: Acute kidney injury (Total (N = 109)): 4 (3.7) n (%)
- Grade ≥3 TEAE: Anemia (Total (N = 109)): 14 (12.8) n (%)
- Grade ≥3 TEAE: Aspartate aminotransferase increased (Total (N = 109)): 2 (1.8) n (%)
- Grade ≥3 TEAE: Blood bilirubin increased (Total (N = 109)): 2 (1.8) n (%)
- Grade ≥3 TEAE: Dyspnea (Total (N = 109)): 4 (3.7) n (%)
- Grade ≥3 TEAE: Fatigue (Total (N = 109)): 5 (4.6) n (%)
- Grade ≥3 TEAE: Hyperbilirubinemia (Total (N = 109)): 2 (1.8) n (%)
- Grade ≥3 TEAE: Hypertension (Total (N = 109)): 2 (1.8) n (%)
- Grade ≥3 TEAE: Hypokalemia (Total (N = 109)): 7 (6.4) n (%)
- Grade ≥3 TEAE: Hypomagnesemia (Total (N = 109)): 2 (1.8) n (%)
- Grade ≥3 TEAE: Hypophosphatemia (Total (N = 109)): 2 (1.8) n (%)
- Grade ≥3 TEAE: Lymphocyte count decreased (Total (N = 109)): 5 (4.6) n (%)
- Grade ≥3 TEAE: Lymphopenia (Total (N = 109)): 2 (1.8) n (%)
- Grade ≥3 TEAE: Muscular weakness (Total (N = 109)): 2 (1.8) n (%)
- Grade ≥3 TEAE: Nausea (Total (N = 109)): 2 (1.8) n (%)
- Grade ≥3 TEAE: Neutropenia (Total (N = 109)): 4 (3.7) n (%)
- Grade ≥3 TEAE: Platelet count increased (Total (N = 109)): 3 (2.8) n (%)
- Grade ≥3 TEAE: Pleural effusion (Total (N = 109)): 2 (1.8) n (%)
- Grade ≥3 TEAE: Pneumonia (Total (N = 109)): 2 (1.8) n (%)
- Grade ≥3 TEAE: Pneumonitis (Total (N = 109)): 2 (1.8) n (%)
- Grade ≥3 TEAE: Pyrexia (Total (N = 109)): 2 (1.8) n (%)
- Grade ≥3 TEAE: Small intestinal obstruction (Total (N = 109)): 4 (3.7) n (%)
- Grade ≥3 TEAE: Thrombocytopenia (Total (N = 109)): 2 (1.8) n (%)
- Grade ≥3 TEAE: Vomiting (Total (N = 109)): 4 (3.7) n (%)
- Grade ≥3 TEAEs (Total (N = 109)): 66 (60.6) n (%)
- Grade ≥3 TEAEs related to subasumstat (Total (N = 109)): 29 (26.6) n (%)
- On-study deaths (Total (N = 109)): 12 (11.0) n (%)
- Patients with at least one grade ≥3 TEAE (Total (N = 109)): 66 (60.6) n (%)
- Serious adverse events (Total (N = 109)): 48 (44.0) n (%)
- Serious adverse events related to subasumstat (Total (N = 109)): 12 (11.0) n (%)
- TEAE: Abdominal distension (Total (N = 109)): 12 (11.0) n (%)
- TEAE: Abdominal pain (Total (N = 109)): 21 (19.3) n (%)
- TEAE: Anemia (Total (N = 109)): 19 (17.4) n (%)
- TEAE: Arthralgia (Total (N = 109)): 17 (15.6) n (%)
- TEAE: Back pain (Total (N = 109)): 14 (12.8) n (%)
- TEAE: CRS (Total (N = 109)): 12 (11.0) n (%)
- TEAE: Chills (Total (N = 109)): 28 (25.7) n (%)
